System: HL-60 (human promyelocytic leukemia cells)
Assay: MTT inhibition of tumor cell growth, HL-60
Format: cell-based
Conditions: Homo sapiens, HL-60, 48 h
Summary of the method: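 Cells seeded at 5000-10000/well in DMEM or RPMI1640 with 10% FBS, exposed 48 h at 37 °C to compound (40 μM primary screen; 5-concentration re-screen for ~50% inhibitors), triplicates. MTT added 4 h, formazan dissolved in 10% SDS overnight, A595 read; IC50 by Reed-Muench two-point method.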

Measured: IC50

C=C1C(=O)[C@]23CC[C@H]1CC2[C@@]12CCC[C@@](C)(COC1=O)C2C[C@H]3O (stereo partly drawn) [Compound 1, 15-oxospiramilactone]
6.36 µM: Table 1, 7-hydroxy derivatives of S-3 | Table 2, derivatives having potential Michael reaction acceptor | Table 3, single Michael reaction acceptor, modified lactonic ring | Table 4, derivatives obtained by reduction of the lactonic ring | Table 5, derivatives having double Michael reaction acceptor | Table 7 (first), alkaloid derivatives

Reference: patent publication US10112918B2, “15-oxospiramilactone derivatives, preparation method and uses thereof” (Kunming Institute of Botany, The Chinese Academy of Sciences, priority 2013, dated 2018)
